Test results published in patent US7166310B2, “Stable extract from Hypericum perforatum L., method for the production thereof and its use as a topical medicament” (Dr. Willmar Schwabe GmbH & Co., priority 2000, dated 2007).
Values after ≈ are worked out from the molar mass of the structure shown. Read-outs that look alike come from different tables or passages of the source.

How the values were obtained:
[1] = system: human keratinocytes (HaCaT cells); test: Proliferation of human keratinocytes, 3H methyl-thymidine incorporation; format: cell-based; conditions: for inhibition at 10 µg/mL: Homo sapiens, HaCaT, read-out: Inhibition (proliferation of HaCaT cells)
Experimental: The effects of the extracts according to the invention and various ingredients on the proliferation of human keratinocytes were obtained by using the HaCaT cell-line. The cells (10,000–15,000) were disseminated in 200 μl DMEM with 5% foetal calf serum in 96-well F-form micro-titre dishes and incubated at 37° C. at absence of test substances in an incubator. Cell proliferation was determined by measuring the incorporation of ^3H methyl-thymidine (0.5 μCi/well) over the last 6 hours in the culture.

5α reductase = target: T1, 5α reductase (Homo sapiens, UniProt P18405); test: Inhibition of 5α reductase in DU145 cells; format: cell-based
T1 construct: carried out on cells of the human prostate-cancer cell-line DU145; endogenous in cells; host or cells: DU145 (human prostate cancer cell line)
T1 sequence (P18405 1-259): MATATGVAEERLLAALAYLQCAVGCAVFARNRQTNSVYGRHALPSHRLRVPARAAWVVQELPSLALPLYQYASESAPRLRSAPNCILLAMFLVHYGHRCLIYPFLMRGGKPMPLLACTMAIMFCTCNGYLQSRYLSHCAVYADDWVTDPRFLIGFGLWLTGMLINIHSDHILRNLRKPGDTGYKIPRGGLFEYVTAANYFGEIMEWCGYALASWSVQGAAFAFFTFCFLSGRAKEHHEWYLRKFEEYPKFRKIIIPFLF

[2] = system: Oleum Crotonis-ear-oedema; test: Oleum Crotonis-ear-oedema model, ear weight; format: in vivo; conditions: 250 μg topically on the ear, mice, 6 hours
Experimental: (§1) The anti-phlogistic effects of hypericum extract according to the invention, also those of isolated ingredients, were tested in the Oleum Crotonis-ear-oedema model on male NRMI mice. After inducing a narcosis by the intra-peritonal injection of 60 mg/kg sodium-pento-barbital, the test substances were applied to the right ear in 10 μl acetone, whereas the left ear was treated with 10 μl acetone alone, as a control. 30 mins later, a local inflammation was triggered at the left ear by applying 50 μg Oleum Crotonis in 10 μl acetone. After 6 hours, the animals were sacrificed and inhibition of the inflammation reaction was quantified by weighing a sample of tissue drawn from both ears, using the following formula: [1−(GT/GL]×100; in the case of GT or GL, this deals with the difference in weight between the right and left ears of animals that have been treated with the test substance (GT), or only with the solvent (GL).
(§2) The results of the investigations after applying 250 μg of the test substance or 1000 μg of the extract according to the invention to the left ear in each case are summarised in the following table.

[3] = system: myelo-peroxidase (MPO), neutrophile granulocyte accumulation; test: Oleum Crotonis-ear-oedema model, myelo-peroxidase in ear homogenates; format: in vivo; conditions: 250 μg topically on the ear, mice, 6 hours
Experimental: as §1
Inhibition of neutrophile granulocyte accumulations in inflamed tissue was obtained by determining myelo-peroxidase (MPO) in the ear homogenates. To this end, biopsy samples were recorded in 1 ml hexadecyl-trimethyl ammonium bromide (HTAB) buffers, homogenised with a glass homogeniser at 4° C. and then given ultrasound treatment for 10 seconds in a sonicator. After centrifuging at 4° C. with 3000 g for 10 mins, the supernatant was removed and retained for analysing at −70° C. Determining the MPO was performed in micro-titre dishes after adding H2O2 and the O-dianisidine-dihydrochloride indicator as a kinetic measure, over a period of 5 mins at 450 nm. Assessment was carried out against a standard curve with horseradish peroxidase, and was obtained as an mU enzyme activity per mg of tissue.
as §2

[4] = system: Herpes simplex 1 strain of virus (HSV-1); test: HSV-1 "deactivation test" (virus titre on verocells); format: cell-based; conditions: for virus titre: virus applied 1.5×10^7 TCID50
[5] = system: Herpes simplex 1 strain of virus (HSV-1); test: HSV-1 "inhibition test" (virostatic action in verocells); format: cell-based; conditions: Human alphaherpesvirus 1; HSV-1 3000 TCID50/ml, 48–72 hours
verocells = test: Cyto-toxicity on verocells, MTT test; format: cell-based, ape; conditions: 7 days
Experimental: Various concentrations of the extract according to the invention and hypericin were incubated in the incubator for 7 days to assess the cyto-toxic effect of verocells. Determining of cyto-toxicity was performed using an MTT test following a published procedure (Cinatl J. jr; Cinatl, J; Rabenau, H, Gümel, H; Doerr, H. W; (1993); “In-vitro anti-human immuno-deficiency virus activity of 2′, 3 dideoxynucleotides and their effect on clonal growth of hæmopoietic cells from human bone-marrow”, Arzneimittel-Frsch./Drug Res. 43, 622–625).
Assessment of the cyto-toxic concentration (TC50) and the virus-inhibiting concentration (IC50) was performed using linear regression. To calculate the therapeutic index, the formula TC50/IC50 was applied.

Methicillin-resistant SA = format: cell-based, Staphylococcus aureus
Experimental: (§3) Anti-microbial effects against various gram-positive bacteria were determined using the micro-dilution method. In the table below, we show the minimum inhibition concentration (MIC) and the minimum bactericide concentration (MBC) in each case.

DU145 cells = conditions: some 30 μg/ml
Experimental: Investigations of 5a reductase inhibition were carried out on cells of the human prostate-cancer cell-line DU145. The cells (250,000) were disseminated in 5 ml of RPMI 1640 medium with 10% foetal calf serum (FCS) in 6-well cell-culture dishes and incubated at 37° C. in an incubator. After four days, the medium against RPMI 1640 was replaced, with the addition of 10% charcoal-stripped FCS. On the following day, the test substances and ^14C testosterone were applied and another 18 hours later, supernatant of the cells were removed. The supernatant of the cells were mixed with 2.5 ml ethyl acetate and then centrifuged for 10 mins with 500 g at room temperature. The organic phase was removed and transferred over to a small glass tube. Extraction was then repeated by again applying 2.5 ml ethyl acetate. The combined organic phases were evaporated down at 37° C. under N2 fumigation until dry; the residue was taken into 50 μl ethyl acetate and then separated out twice on a silica-gel 60 TLC dish, with ethyl acetate/cyclohexane (1:1) as mobile phase. The testosterone metabolites so formed were localised with the aid of a linear analyser, and inhibition of 5α reductase was obtained at the dihydro-testosterone peak by comparison with the solvent control.

[6] = system: Staphylococcus saprophyticus; test: MIC, micro-dilution method; format: cell-based
Experimental: as §3

Enterococcus fæcium = test: MIC, micro-dilution method; format: cell-based
Experimental: as §3

Enterococcus durans = test: MIC, micro-dilution method; format: cell-based
Experimental: as §3

Listeria monocytogenes = test: MIC, micro-dilution method; format: cell-based
Experimental: as §3

[7] = system: Staphylococcus aureus (SA); test: MIC, micro-dilution method; format: cell-based
Experimental: as §3

Streptococcus pyogenes = test: MIC, micro-dilution method; format: cell-based
Experimental: as §3

Enterococcus fæcalis = test: MIC, micro-dilution method; format: cell-based
Experimental: as §3

[8] = DU-145, read-out: Inhibition of 5α reductase
[9] = DU-145, 30 μg/ml, DU145 cells, 18 hours, read-out: Inhibition of 5α reductase

Compound | Oedema inhibition [2] [%] | MPO inhibition [3] [%] | inhibition at 10 µg/mL ([1]; 10 μg/ml) [%] | inhibition at 30 µg/mL (5α reductase; [9]) [%] | further results
Hyperforin Na | – | – | – | – | Inhibition (proliferation of HaCaT cells) ([1]; 10 μg/ml): 97%; Inhibition of 5α reductase (5α reductase; 5 μg/ml, DU145 cells, 18 hours): 10%
C[C@@H]1O[C@@H](Oc2c(-c3ccc(O)c(O)c3)oc3cc(O)cc(O)c3c2=O)[C@H](O)[C@H](O)[C@H]1O [Quercitrin] | −26 | 23 | – | – | inhibition at 10 µg/mL [1]: 35%; inhibition at 30 µg/mL (5α reductase; [8]): -29%
O=c1cc(-c2ccc(O)c(O)c2)oc2cc(O)cc(O)c12 [Luteolin] | 70 | 91 | 92 | 42 | –
C[C@@H]1O[C@@H](OC[C@H]2O[C@@H](Oc3c(-c4ccc(O)c(O)c4)oc4cc(O)cc(O)c4c3=O)[C@H](O)[C@@H](O)[C@@H]2O)[C@H](O)[C@H](O)[C@H]1O [Rutin] | 38 | 55 | 9 | -6 | –
O=c1c(O[C@@H]2O[C@H](CO)[C@@H](O)[C@H](O)[C@H]2O)c(-c2ccc(O)c(O)c2)oc2cc(O)cc(O)c12 [Isoquercitrin] | −29 | 73 | 83 | -5 | –
Cc1cc(O)c2c(=O)c3c(O)cc(O)c4c5c(O)cc(O)c6c(=O)c7c(O)cc(C)c8c1c2c(c34)c(c78)c65 [Hypericin] | 6 | 48 | 100 | – | virus titre ([4]; 10 μg/ml): 4.7 × 10^6 TCID50; virus-deactivating action ([4]; 100 μg/ml): approx. 4 log10 stages; virus titre ([4]; 100 μg/ml): 4.7 × 10^3 TCID50; inhibition at 30 µg/mL (5α reductase; [8]): -24%; IC50 [5]: 2.2 µg/mL (≈ 4.36 µM); TC50 (verocells): 74.3 µg/mL (≈ 147 µM)
O=C(/C=C/c1ccc(O)c(O)c1)O[C@@H]1C[C@](O)(C(=O)O)C[C@@H](O)[C@H]1O [Chlorogenic acid] | 14 | 16 | -9 | 3 | –
O=c1c(O)c(-c2ccc(O)c(O)c2)oc2cc(O)cc(O)c12 [Quercetin] | 82 | 97 | -29 | 46 | –
O=c1cc(-c2ccc(O)c(-c3c(O)cc(O)c4c(=O)cc(-c5ccc(O)cc5)oc34)c2)oc2cc(O)cc(O)c12 [Amento-flavone] | 82 | 70 | 68 | -15 | –
Camphor oil | 91 | 96 | – | – | Inhibition (proliferation of HaCaT cells) ([1]; 10 μg/ml): 44%; Inhibition of 5α reductase (5α reductase; 30 μg/ml, DU145 cells, 18 hours): 12%
O=c1c(O[C@@H]2O[C@H](CO)[C@H](O)[C@H](O)[C@H]2O)c(-c2ccc(O)c(O)c2)oc2cc(O)cc(O)c12 [Hyperoside] | −27 | 39 | -8 | -1 | –
O=c1c(O)c(-c2cc(O)c(O)c(O)c2)oc2cc(O)cc(O)c12 [Myricetin] | 17 | 75 | 26 | 29 | –
Oc1cc(O)c2c(c1)O[C@H](c1ccc(O)c(O)c1)[C@H](O)C2 [Epicatechol] | 1 | 45 | 13 | -6 | –
CC(C)=CCC[C@]1(C)[C@@H](CC=C(C)C)C[C@@]2(CC=C(C)C)C(=O)[C@]1(C(=O)C(C)C)C(=O)C(CC=C(C)C)=C2O [Hyperforin] | 65 | 62 | – | – | MIC (Methicillin-resistant SA): 31.25 µg/mL (≈ 58.2 µM); cyto-toxicity (DU145 cells): cyto-toxic; MIC [6]: 62.5 to 125 µg/mL; MIC (Enterococcus fæcium): 125 to 250 µg/mL; MIC (Enterococcus durans): 125 µg/mL (≈ 233 µM); MIC (Listeria monocytogenes): 15.6 to 31.25 µg/mL; MIC [7]: 62.5 µg/mL (≈ 116 µM); MIC (Streptococcus pyogenes): 15.6 µg/mL (≈ 29.1 µM); MIC (Enterococcus fæcalis): 125 µg/mL (≈ 233 µM)
Oc1ccccc1O [Catechol] | 36 | 41 | – | -15 | inhibition at 10 µg/mL [1]: 14%
